Laboratory results from PubChem BioAssay (NCI).
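All cell lines were grown in 96-well plates and treated with compound for 48 hours. GI50 marks 50% less growth. TGI: concentration producing complete growth inhibition.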

Tests used:
Assay in all cases: inhibition of tumour cell growth, NCI panel, 48 h
CCRF-CEM leukemia = tested on: CCRF-CEM leukemia
HT29 colon = tested on: HT29 colon
K-562 leukemia = tested on: K-562 leukemia
LOX IMVI melanoma = tested on: LOX IMVI melanoma
PC-3 prostate = tested on: PC-3 prostate
SK-MEL-5 melanoma = tested on: SK-MEL-5 melanoma
SNB-75 CNS = tested on: SNB-75 CNS
SR leukemia = tested on: SR leukemia
SW-620 colon = tested on: SW-620 colon
U251 CNS = tested on: U251 CNS

Compound | GI50 (CCRF-CEM leukemia) [µM] | TGI (CCRF-CEM leukemia) [µM] | GI50 (HT29 colon) [µM] | TGI (HT29 colon) [µM] | GI50 (K-562 leukemia) [µM] | TGI (K-562 leukemia) [µM] | GI50 (LOX IMVI melanoma) [µM] | TGI (LOX IMVI melanoma) [µM] | GI50 (PC-3 prostate) [µM] | TGI (PC-3 prostate) [µM] | GI50 (SK-MEL-5 melanoma) [µM] | TGI (SK-MEL-5 melanoma) [µM] | GI50 (SNB-75 CNS) [µM] | TGI (SNB-75 CNS) [µM] | GI50 (SR leukemia) [µM] | TGI (SR leukemia) [µM] | GI50 (SW-620 colon) [µM] | TGI (SW-620 colon) [µM] | GI50 (U251 CNS) [µM] | TGI (U251 CNS) [µM]
CN(C)c1ccc(/C=C/c2ccnc3c(O)cccc23)cc1 | 0.333 | > 100 | 11.7 | > 100 | 0.364 | > 100 | 0.313 | > 100 | 0.383 | > 100 | 0.37 | 3.05 | 0.372 | 36.6 | 0.321 | > 100 | 0.397 | > 100 | 0.338 | > 100
C=C(C)[C@@H]1CC[C@]2(COCCC#N)CC[C@]3(C)[C@H](CC[C@@H]4[C@@](C)(CCCNCCC#N)[C@H](C(=C)C)CC[C@]43C)[C@@H]12 | 10.8 | 38.5 | 7.88 | 19.8 | 8.94 | 31.6 | 8.47 | 16.7 | 10.3 | > 50 | 20.2 | > 50 | > 50 | > 50 | 8.48 | 42.3 | 11.5 | 31.2 | 13.9 | 47.1
Cc1ccc(Cl)cc1Nc1nc(C(F)(F)F)ccc1C(=O)N/N=C/c1cccnc1 | 4.14 | > 100 | 5.73 | 20.7 | 1.71 | > 39 | 1.52 | 13.6 | 1.99 | 18.7 | 2.5 | 10.3 | 4.93 | 19.5 | 0.148 |  | 3.32 | 14.9 | 2.14 | 11.7
CCOC(=O)c1ccccc1OC(=O)NNc1ccccc1 | 1.8 | > 100 | > 100 | > 100 | 0.225 | > 100 | 5 | > 100 | 7.91 | > 100 | 1.43 | > 33.2 | > 60.4 | > 100 | 1.47 | > 100 | 12.4 | > 100 | > 35.6 | > 100
C[n+]1c(/C=C/c2c[nH]c3ccccc23)ccc2ccccc21 | 5.59 | 45 | 5.06 | 27.5 | 2.32 | 18.1 | 11 | 23.1 | 9.74 | 25.8 | 6.15 | 19.6 | 14.1 | 27.4 | 5.84 | 30 | 4 | 19.4 | 8.75 | 22.5
CCCCCCCC/C=C/CCCCCCCC1=NC(C)(C)CN1CC(C)O (centres undefined) | 2.24 | 5.97 | 1.59 | 3.09 | 1.44 | 3.27 | 1.52 | 2.88 | 2.26 | 8.08 | 6.39 | 16.9 | 1.81 | 4.23 | 0.7 | 2.65 | 1.8 | 3.34 | 1.64 | 3.02
COc1c(O)c(OC)c2oc(-c3ccc(O)c(O)c3)c(OC)c(=O)c2c1O |  | > 100 |  | > 100 |  | > 100 |  | 95.9 |  | > 100 |  | 50.8 |  | 11.5 |  | > 100 |  | > 100 |  | 78.1
Nc1nc2c(ncn2C2CCC(CO)O2)c(=O)n1C(=O)c1ccccc1 (centres undefined) |  | > 100 |  | > 100 |  | > 100 |  | > 100 |  | > 100 |  | > 100 |  | > 100 |  | > 100 |  | > 100 |  | > 100
CCN(CC)CCNc1ccc(C)c2sc3cc(Cl)ccc3c(=O)c12 | 1.44 | 3.36 | 1.94 | 3.48 | 1.64 | 3.44 | 1.58 | 3.01 | 1.54 | 3.01 | 1.68 | 3.07 | 1.71 | 4.98 | 1.6 | 3.57 | 1.86 | 3.6 | 1.73 | 3.22
O=C(/C=C/c1ccco1)c1cc(F)c(Cl)cc1Cl | 18.8 | 47.5 | 24.3 | 52.1 | 30.2 | > 100 | 22.4 | 58.2 | 24.8 | 80.1 | 17 | 32.5 | 22.3 | 44.2 | 23 | > 100 | 13.1 | 36.3 | 19.3 | 46
O=C1C(Cl)=C(Sc2nnc3c4ccccc4c4ccccc4c3n2)C(=O)c2ccccc21 |  | 14.5 |  | 62 |  | > 59.3 |  | 17.2 |  | 46.4 |  | 22.4 |  | 8.77 |  | > 56 |  | > 65.1 |  | 28.4
C=C1CC2CCCC12C=O (centres undefined) |  | > 10 |  | > 10 |  | > 10 |  | > 10 |  | > 10 |  | > 10 |  | > 10 |  | > 10 |  | > 10 |  | > 10
Nc1cc(F)ccc1CC(=O)O |  | > 100 |  | > 100 |  | > 100 |  | > 100 |  | > 100 |  | > 100 |  | > 100 |  | > 100 |  | > 100 |  | > 100
Cc1ccc(NC(=O)c2ccc(CN3CCN(C)CC3)cc2)cc1Nc1nccc(-c2cccnc2)n1 | 18.4 | 71.1 | 4.88 | 24.1 | 0.0414 | 3.72 | 13.1 | 34.8 | 21.5 | 71.6 | 12.3 | 24.9 | 18.7 | 34.2 | 4.72 | > 51.3 | 24.3 | 54.7 | 17.7 | 45.1
CCOC(=O)[C@@H](C)C[C@H](Cc1ccccc1)NC(=O)c1nc([C@@H](C[C@H](C(C)C)N(C)C(=O)[C@@H](NC(=O)[C@H]2CCCCN2C)C(C)C)OC(C)=O)sc1CCOCc1ccccc1 | 0.0795 | > 6.52 | 0.0375 | 1.4 | 0.0358 | 1.92 | 0.0609 | 1.54 | 0.0521 | 2.41 | 0.05 | 0.38 | 0.0433 | 2.76 | 0.0313 | 1.87 | 0.064 | > 6.6 | 0.0716 | 1.62
O=c1cc(-c2ccccc2)oc2ccc(OC/C(=N/O)c3ccccc3)cc12 | 1.51 | > 50 | 2.02 | > 50 | 2.53 | > 50 | 2.76 | 20.2 | 2.46 | 16.1 | 1.82 | 11.7 | 2.76 | > 50 | 1.73 | > 50 | 1.74 | > 50 | 2.35 | > 50
COc1cccc(CCC2CCCN(c3cc(C)nc(N)n3)C2)c1 (centres undefined) | 0.34 | 22.2 | 0.28 | 1.49 | 0.259 | 10.6 | 0.609 | 7.65 | 0.379 | 14.1 | 0.333 | 1.32 | 0.194 | 3.46 | 0.236 | 4.09 | 0.363 | 13.7 | 0.413 | 11.4
COc1ccc(N=Cc2c(O)ccc3c2oc2cc(Cl)c(O)c(Cl)c23)cc1 | 4.5 | 31.8 | 16.2 | 37.8 | 5.63 | 49.7 | 15.1 | 53.4 | 14.8 | 57.3 | 10.5 | 27.7 | 12.7 | 48.8 | 10.9 | 51.7 | 11.8 | 25.9 | 5.39 | 34.9
CC12OOC(c3ccccc31)c1c2ccc2ccccc12 (centres undefined) |  | 2.8 |  | 6.02 |  | 3.58 |  | 6.41 |  | 18.8 |  | 21.6 |  | 22.5 |  | 3.24 |  | 3.94 |  | 28.1
CCOC(=O)c1ccc(Nc2sc(C(=O)c3ccc(Br)cc3)c(N)c2C#N)cc1 | 1.43 | > 100 | 0.447 | > 100 | 0.513 | > 100 | 1.64 | > 100 | 0.797 | > 100 | 1.02 | > 100 | 0.496 | 7.61 | 0.658 | > 45.5 | 0.584 | > 100 | 1.49 | > 100
CO/C=C/C(=O)c1cc2cnc3c(=N)cc(NC(=O)C(C)C)c([nH]1)c23 | 0.0184 | 4.94 | 0.0801 | 0.721 | 0.117 | 17.4 | 0.0694 | 0.429 | 0.0183 | 0.817 | 0.075 | 0.183 | 0.00763 | 0.0982 | 0.0489 | 0.427 | 0.0744 | 0.718 | 0.0889 | 0.61
CC[C@H](NC(=O)[C@H]1CCCCN1C)C(=O)N(C)[C@H](C[C@@H](OC(C)=O)c1nc(C(=O)N[C@@H](Cc2ccccc2)C[C@H](C)C(=O)O)cs1)C(C)C | 0.00383 | > 14.3 | 0.00388 | > 14.3 | 0.00209 | > 14.3 | 0.0103 | > 14.3 | 0.00472 | > 14.3 | < 0.00143 | 0.101 | 0.00528 | > 14.3 | 0.00183 | > 14.3 | 0.00398 | > 14.3 | 0.0047 | > 14.3
O=C(COc1ccc(/C=C2\COc3ccccc3C2=O)cc1)Nc1nccs1 | 1.61 | 6.39 | 3.7 | 12.9 | 1.6 | 4.64 | 2.64 | 7.33 | 3.95 | 28.5 | 12.8 | 26.7 | 5.04 | 22 | 1.31 | 3.23 | 3.22 | 10.2 | 6.29 | 19.1
CCOC(=O)C1=C(C)N=c2s/c(=C\c3ccccc3O)c(=O)n2C1c1ccc(OC)c2ccccc12 (centres undefined) | 23.2 | > 100 | 8.29 | 25.1 | 11.4 | 67.2 | 2.44 | 5.65 | 23.3 | > 100 | 15.6 | 64.8 | 2.01 | 6.11 | 4.4 | 58.8 | 16.6 | > 100 | 2.35 | 6.58
CC(C)(C)N1CCC1CN (centres undefined) | > 100 | > 100 | > 100 | > 100 | > 100 | > 100 | > 100 | > 100 | > 100 | > 100 | > 100 | > 100 | > 100 | > 100 | > 100 | > 100 | > 100 | > 100 | > 100 | > 100
N#Cc1c(NC(=O)NCc2ccccc2)sc2c1CCCC2 | 0.459 | > 100 | 0.392 | > 100 | 0.43 | > 100 | 0.643 | > 100 | 0.559 | > 100 | 0.439 | 6.93 | 0.249 | 36 | 0.35 | > 100 | 0.388 | > 100 | 0.66 | > 81.7
C[C@]12CC[C@@H]3c4cc(OC(F)F)c(O)cc4CC[C@H]3[C@@H]1CC[C@@H]2OS(N)(=O)=O | 0.393 | > 100 | 0.846 | 17.8 | 0.38 | > 100 | 0.585 | 22.6 | 0.729 | 97.6 | 0.634 | 13.3 | 0.23 | 0.945 | 0.422 | > 100 | 0.417 | > 100 | 0.549 | 19.5
